Laboratory results: publication PMC10943693, “Evaluation of binding mechanism of dietary phytochemical, capsaicin, with human transferrin: targeting neurodegenerative diseases therapeutics” (Frontiers in Pharmacology, 2024)

Target: T1, Human transferrin (htf) (Homo sapiens, UniProt P02787)
T1 construct: gene TF; commercial protein from Sigma Aldrich
Assay: intrinsic fluorescence quenching (excitation […] nm), modified Stern-Volmer plot
Type: binding
Conditions: 4 µM htf, 0-6 µM capsaicin; inner filter corrected; double-log

T1 sequence (P02787 20-698): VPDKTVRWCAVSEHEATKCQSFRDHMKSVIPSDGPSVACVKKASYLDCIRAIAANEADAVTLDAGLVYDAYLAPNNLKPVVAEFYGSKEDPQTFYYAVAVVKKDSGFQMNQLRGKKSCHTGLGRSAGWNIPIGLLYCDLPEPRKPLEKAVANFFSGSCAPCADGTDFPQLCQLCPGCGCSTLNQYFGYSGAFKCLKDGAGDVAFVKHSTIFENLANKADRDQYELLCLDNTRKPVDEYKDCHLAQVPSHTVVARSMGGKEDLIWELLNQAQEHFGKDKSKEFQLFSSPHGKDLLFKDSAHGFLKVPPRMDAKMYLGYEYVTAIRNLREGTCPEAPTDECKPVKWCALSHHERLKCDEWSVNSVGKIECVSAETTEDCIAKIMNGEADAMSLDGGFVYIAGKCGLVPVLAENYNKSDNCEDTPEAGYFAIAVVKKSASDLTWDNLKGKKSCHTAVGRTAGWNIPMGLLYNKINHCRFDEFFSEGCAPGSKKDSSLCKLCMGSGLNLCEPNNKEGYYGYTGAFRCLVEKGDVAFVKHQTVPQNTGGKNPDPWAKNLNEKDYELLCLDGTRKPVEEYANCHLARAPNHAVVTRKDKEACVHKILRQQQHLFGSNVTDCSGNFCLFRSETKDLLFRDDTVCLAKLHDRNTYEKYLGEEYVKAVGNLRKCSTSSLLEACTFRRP

## COc1cc(CNC(=O)CCCC/C=C/C(C)C)ccc1O [capsaicin, 8-methyl-N-vanillyl-6-nonenamide]
  K: 3.99e+06 M⁻¹
